Experiments:
[1] = test system: mice; experiment: Comparison of death rate, toxicity and acute general tolerability in mice by intravenous administration; type: in vivo
Text: (§1) Some experiments have been thus carried out for the comparison of the death rate, toxicity and acute general tolerability, between the product available in the market from Bristol Myers (BB-K8), amikacin produced according to the synthesis of the present invention and the potential impurities (BB K11, BB K29 and the diacylate with L-HABA at N-1 and N-3"), in mice by intravenous administration (caudal vein) to groups of 10 animals. The LD50 values have been calculated by the Finney-Probits method.

[2] = as above; type: in vivo; conditions: mouse, in vivo, iv, mice, intravenous (caudal vein), groups of 10 animals, Finney-Probits method
Text: as §1

| Structure (SMILES) | LD50 ([1]; mice, intravenous (caudal vein), groups of 10 animals, Finney-Probits method) | LD50 [2] | toxicity compared with BB-K29 (in words) [1] | toxicity compared with amikacin (in words) [1] |
| --- | --- | --- | --- | --- |
| NCC[C@H](O)C(=O)N[C@@H]1C[C@H](N)[C@@H](O[C@H]2O[C@H](CN)[C@@H](O)[C@H](O)[C@H]2O)[C@H](O)[C@H]1O[C@H]1O[C@H](CO)[C@@H](O)[C@H](N)[C@H]1O [Amikacin, 0-3-amino-3-desoxy-alpha-D-glucopyranosyl-(1→6)-0-[6--amino-6-desoxy-alpha-D-glucopyranosyl-(1→)]-N^1-(4-amino-2-hydroxy-1-oxybutyl)-2-desoxy-D-streptamine] | 241 mg/kg | – | – | – |
| NCC[C@H](O)C(=O)N[C@@H]1C[C@H](N)[C@@H](O[C@H]2O[C@H](CN)[C@@H](O)[C@H](O)[C@H]2O)[C@H](O)[C@H]1O[C@H]1O[C@H](CO)[C@@H](O)[C@H](N)[C@H]1O [BB-K8 Bristol] | – | 202 mg/kg | – | – |
| NCC[C@H](O)C(=O)N[C@@H]1[C@@H](O)[C@@H](O[C@@H]2[C@@H](O)[C@H](O[C@H]3O[C@H](CN)[C@@H](O)[C@H](O)[C@H]3O)[C@@H](N)C[C@H]2N)O[C@H](CO)[C@H]1O [BB-K11] | – | 356 mg/kg | lower | – |
| NCC[C@H](O)C(=O)N[C@H]1C[C@@H](N)[C@H](O[C@H]2O[C@H](CO)[C@@H](O)[C@H](N)[C@H]2O)[C@@H](O)[C@@H]1O[C@H]1O[C@H](CN)[C@@H](O)[C@H](O)[C@H]1O [BB-K29] | – | 126 mg/kg | – | more toxic than amikacin |
| NCC[C@H](O)C(=O)N[C@@H]1[C@@H](O)[C@@H](O[C@@H]2[C@@H](O)[C@H](O[C@H]3O[C@H](CN)[C@@H](O)[C@H](O)[C@H]3O)[C@@H](N)C[C@H]2NC(=O)[C@@H](O)CCN)O[C@H](CO)[C@H]1O [Diacylate (N-1 and N-3")] | – | 268 mg/kg | lower | – |

Source: patent publication US5763587A, “Process for the synthesis of amikacin” (Gist Brocades Italy Spa, priority 1987, dated 1998)
